Values after ≈ are worked out from the molar mass of the structure shown. Values joined by “and” are separate entries in the source; they are usually repeats but may differ in a detail not shown here. Equal values may be shown once. Read-outs that look alike come from different tables or passages of the source.
Columns and labels:
[1] = biological target: T1, Recombinant M. tuberculosis MbtI (Mycobacterium tuberculosis, UniProt P9WFX1); assay: MbtI enzymatic inhibition assay (fluorimetric, salicylic acid formation); type: biochemical; details: for activity against MbtI (in words): discussion of Table 1
T1 construct: made in house
Protocol: Recombinant M. tuberculosis MbtI was produced and purified as previously reported. Enzyme activity was determined at 37 °C, measuring the formation of salicylic acid by a fluorimetric assay, slightly modified from Vasan et al.. Briefly, the reactions were performed in a final volume of 400 μL of 50 mM Hepes pH 7.5, 5 mM MgCl2, containing 1-2 μM MbtI, by the addition of chorismic acid, and monitored using a Perkin-Elmer LS3 fluorimeter (Ex. λ = 305 nm, Em. λ = 420 nm). Inhibition assays were performed in the presence of the compound at 100 µM (stock solution 20 mM in DMSO) and 50 µM chorismic acid. Where possible, compounds were tested both as free acids and sodium salts, providing analogous results. […] To this end, the activity was measured at different compound concentrations, and values were calculated according to Equation (1), with Origin 8 software:(1) A[I] = A[0] × (1 −[I]/[I] + IC50) where A[I] is the activity at inhibitor concentration [I] and A[0] is the activity in the absence of the inhibitor.
The Ki was determined at different substrate [S] and compound concentrations, using Equation (2):(2) v = Vmax[S]/[S] + Km (1 + [I]/Ki)

[2] = biological target: T1, Recombinant M. tuberculosis MbtI; details: cited from earlier work; for %RA (% residual enzymatic activity at 100 µM): previous furan leads I and II shown in Table 1 for comparison
[3] = tested on: M. bovis BCG; details: previous lead I given for comparison; cited from earlier work
[4] = tested on: eukaryotic cells; design: method as in PMID 32530281, PMID 30889995, PMID 29940465, PMID 29933627; details: previous leads; cited from earlier work
[5] = tested on: M. bovis BCG; assay: microbe, parasite or virus in culture; type: cell-based
[6] = Series B R = p-NO2Ph, compound 100 µM, 50 µM chorismic acid, read-out: %RA (% residual enzymatic activity at 100 µM)
[7] = Table 2, furans IV–IX, compound 100 µM, 50 µM chorismic acid, read-out: % RA (% residual enzymatic activity at 100 µM)
[8] = Table 2, furans IV–IX, only for compounds with %RA ≤ 25%, read-out: IC50
[9] = rounded value, read-out: IC50 against MbtI
[10] = Series B R = p-NO2Ph, only for compounds with %RA ≤ 25%, read-out: IC50
[11] = Series A R = m-CNPh, compound 100 µM, 50 µM chorismic acid, read-out: %RA (% residual enzymatic activity at 100 µM)
[12] = Series A R = m-CNPh, only for compounds with %RA ≤ 25%, read-out: IC50
[13] = compound 100 µM, rounded value, read-out: % residual enzymatic activity (%RA) at 100 µM

T1 sequence (P9WFX1 whole entry): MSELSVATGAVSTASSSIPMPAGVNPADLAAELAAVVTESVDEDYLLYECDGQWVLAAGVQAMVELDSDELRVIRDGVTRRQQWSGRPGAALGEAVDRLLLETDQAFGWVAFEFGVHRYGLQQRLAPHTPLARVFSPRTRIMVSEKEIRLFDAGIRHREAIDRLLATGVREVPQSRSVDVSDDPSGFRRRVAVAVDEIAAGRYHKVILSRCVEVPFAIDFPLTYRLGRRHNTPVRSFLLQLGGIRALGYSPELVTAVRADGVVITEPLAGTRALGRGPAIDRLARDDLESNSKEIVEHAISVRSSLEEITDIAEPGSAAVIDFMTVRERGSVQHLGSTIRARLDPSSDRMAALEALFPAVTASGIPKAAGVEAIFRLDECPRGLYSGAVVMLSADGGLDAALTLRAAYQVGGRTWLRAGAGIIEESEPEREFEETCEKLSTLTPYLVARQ

O=C([O-])c1ncc(-c2ccc([N+](=O)[O-])cc2)s1.[Na+] [2b, Sodium 5-(4-nitrophenyl)thiazole-2-carboxylate]
remaining activity at 100 µM [1, 6]: 32.8 ± 2.3%
activity against MbtI (in words) [1]: weaker inhibitors
melting point: > 300 °C (dec.)

N#Cc1cccc(-c2ccc(C(=O)O)o2)c1 [I]
%RA (% residual enzymatic activity at 100 µM) [2]: 3.1 ± 1.0%
MIC99 [3]: 250 µM (≈ 53.3 µg/mL)
cytotoxicity towards eukaryotic cells (in words) [4]: negligible cytotoxicity

N#Cc1cc(-c2ccc(C(=O)O)o2)cc(C(F)(F)F)c1 [IV, 5-(3-Cyano-5-(trifluoromethyl)phenyl)furan-2-carboxylic acid]
remaining activity at 100 µM [1, 7]: 0.7 ± 2.7%
IC50 [1, 8]: 15.5 ± 3.1 µM
Ki ([1]; kinetic analysis at different chorismic acid and compound concentrations): 9.2 µM and ~9 µM
remaining activity at 100 µM ([1]; read-out: % residual enzymatic activity (%RA) at 100 µM): ~1%
IC50 [1, 9]: ~15 µM
nature of inhibition against MbtI ([1]; steady-state kinetics towards chorismic acid): competitive inhibitor
MIC99 ([5]; M. bovis BCG, iron-limiting conditions (chelated Sauton's medium), REMA): 125 µM (≈ 35.1 µg/mL)
MIC99 ([5]; Mycobacterium tuberculosis variant bovis BCG, BCG): 125 µM (≈ 35.1 µg/mL)

O=C(O)c1nnc(-c2ccc([N+](=O)[O-])cc2)o1 [5b, 5-(4-Nitrophenyl)-1,3,4-oxadiazole-2-carboxylic acid]
remaining activity at 100 µM [1, 6]: 59 ± 4.3%
melting point: 220 °C (dec.)

O=C(O)c1ncc(-c2ccc([N+](=O)[O-])cc2)[nH]1 [4b, 5-(4-Nitrophenyl)-1H-imidazole-2-carboxylic acid]
remaining activity at 100 µM [1, 6]: 18.2 ± 4.9%
IC50 [1, 10]: 27.5 ± 2.3 µM
activity against MbtI (in words) [1]: weak activity
melting point: 137 °C

N#Cc1cccc(-c2cnc(C(=O)[O-])s2)c1.[Na+] [2a, Sodium 5-(3-cyanophenyl)thiazole-2-carboxylate]
remaining activity at 100 µM [1, 11]: 24.8 ± 1.8%
IC50 [1, 12]: 41.9 ± 7.3 µM
activity against MbtI (in words) [1]: weaker inhibitors
melting point: > 300 °C (dec.)

Cc1cc(C#N)cc(-c2ccc(C(=O)O)o2)c1 [VIII, 5-(3-cyano-5-methylphenyl)furan-2-carboxylic acid]
remaining activity at 100 µM [1, 7]: 16.7 ± 3.8%
IC50 [1, 8]: 29.1 ± 1.8 µM
IC50 [1, 9]: ~29 µM

O=C(O)c1ccc(-c2ccccc2)o1 [III]
MbtI activity (in words) ([2]; removal of the substituent from the phenyl ring): complete loss of activity

N#Cc1cc(O)cc(-c2ccc(C(=O)O)o2)c1 [IX, 5-(3-cyano-5-hydroxyphenyl)furan-2-carboxylic acid]
remaining activity at 100 µM [1, 7]: 15.3 ± 2.6%
IC50 [1, 8]: 33.5 ± 3.4 µM
IC50 [1, 9]: ~33 µM

COc1cc(C#N)cc(-c2ccc(C(=O)O)o2)c1 [VII, 5-(3-Cyano-5-methoxyphenyl)furan-2-carboxylic acid]
remaining activity at 100 µM [1, 7]: 10.5 ± 3.9%
IC50 [1, 8]: 14.5 ± 2.1 µM
activity against MbtI (in words) [1]: comparable IC50 with respect to IV

O=C(O)c1ccc(-c2ccc([N+](=O)[O-])cc2)o1 [II]
%RA (% residual enzymatic activity at 100 µM) [2]: 18.2 ± 5.1%
cytotoxicity towards eukaryotic cells (in words) [4]: negligible cytotoxicity

N#Cc1cc(C(F)(F)F)ccc1-c1ccc(C(=O)O)o1 [5-(2-cyano-4-(trifluoromethyl)phenyl)furan-2-carboxylic acid]
IC50 ([2]; previously published disubstituted furans, read-out: IC50 against MbtI): ~18 µM

O=C(O)c1ccc(-c2ccc([N+](=O)[O-])cc2)s1 [1b, 5-(4-Nitrophenyl)thiophene-2-carboxylic acid]
remaining activity at 100 µM [1, 6]: 22.5 ± 10.8%
IC50 [1, 10]: 18.6 ± 1.7 µM
remaining activity at 100 µM [1, 13]: ~23%
melting point: 189 °C

N#Cc1cccc(-n2cc(C(=O)O)nn2)c1 [6a, 1-(3-Cyanophenyl)-1H-1,2,3-triazole-4-carboxylic acid]
remaining activity at 100 µM [1, 11]: 67.9 ± 6.6%

N#Cc1cccc(-c2nnc(C(=O)O)o2)c1 [5a, 5-(3-Cyanophenyl)-1,3,4-oxadiazole-2-carboxylic acid]
remaining activity at 100 µM [1, 11]: 75 ± 9.8%
melting point: 222 °C (dec.)

O=C([O-])c1ncc(-c2ccc([N+](=O)[O-])cc2)o1.[Na+] [3b, Sodium 5-(4-nitrophenyl)oxazole-2-carboxylate]
remaining activity at 100 µM [1, 6]: 23 ± 7.8%
IC50 [1, 10]: 21.1 ± 2.7 µM
activity against MbtI (in words) [1]: modest activity
melting point: > 300 °C (dec.)

N#Cc1cccc(-c2cnc(C(=O)O)[nH]2)c1 [4a, 5-(3-Cyanophenyl)-1H-imidazole-2-carboxylic acid]
remaining activity at 100 µM [1, 11]: 21.2 ± 1%
IC50 [1, 12]: 39.3 ± 3 µM
activity against MbtI (in words) [1]: weak activity
melting point: 165 °C

N#Cc1cccc(-c2ccc(C(=O)O)s2)c1 [1a, 5-(3-Cyanophenyl)thiophene-2-carboxylic acid]
remaining activity at 100 µM [1, 11]: 23.7 ± 5%
IC50 [1, 12]: 35.5 ± 1.9 µM
remaining activity at 100 µM [1, 13]: ~23%
melting point: 207 °C

O=C(O)c1ccc(-c2cc(C(F)(F)F)cc(C(F)(F)F)c2)o1 [V, 5-(3,5-Bis(trifluoromethyl)phenyl)furan-2-carboxylic acid]
remaining activity at 100 µM [1, 7]: 8.9 ± 1.6%
IC50 [1, 8]: 18.8 ± 6.8 µM
IC50 [1, 9]: ~19 µM

N#Cc1cccc(-c2cnc(C(=O)[O-])o2)c1.[Na+] [3a, Sodium 5-(3-cyanophenyl)oxazole-2-carboxylate]
remaining activity at 100 µM [1, 11]: 38 ± 7.6%
activity against MbtI (in words) [1]: negligible activity
melting point: > 300 °C (dec.)

N#Cc1cc(F)cc(-c2ccc(C(=O)O)o2)c1 [VI, 5-(3-cyano-5-fluorophenyl)furan-2-carboxylic acid]
remaining activity at 100 µM [1, 7]: 8.7 ± 1.4%
IC50 [1, 8]: 17.3 ± 3.1 µM

O=C(O)c1cn(-c2ccc([N+](=O)[O-])cc2)nn1 [6b, 1-(4-Nitrophenyl)-1H-1,2,3-triazole-4-carboxylic acid]
remaining activity at 100 µM [1, 6]: 32.7 ± 7.8%
melting point: 175 °C
